SMILES strings stand for the structures.

Experiment [1] concerns mouse intestinal organoids. Conditions: ENR media supplemented with factor; based on published data (Yin et al); cited from earlier work.
Experiment [2] deals with mouse intestinal organoids. Nature of the experiment: mouse small intestinal organoid differentiation, lineage markers by Q-PCR. Format: cell-based. Conditions: ENR media, Q-PCR after 5 days of treatment, FIG. 2. The text has this: Cryopreserved mouse intestinal organoids derived from small intestine were obtained from Stem Cell Technologies. The organoids were thawed and propagated in Intesticult Growth Medium (Mouse) (purchased from Stem Cell Technologies) following the company's instructions. Briefly, ˜100 organoid fragments/well are embedded in Matrigel domes in 24-well plates and growth media is renewed every 2-3 days. The organoids are passaged every 5-6 days in 1:4 ratio. To assess the potential of the predicted perturbations to induce the enteroendocrine cell lineage during organoid differentiation, we established an in vitro assay to induce the various intestinal lineages (enterocytes, goblet cells, Paneth cells, enteroendocrine cells) based on published data (Yin et al, Nat Methods. 2014 January; 11(1):106-12). Briefly, organoid fragments are embedded in Matrigel and grow in custom-made media in the presence of EGF, Noggin, Rspondin (ENR) supplemented with the indicated factors (Table 4) that are known to induce markers of the various intestinal lineages. The expression of markers and the induction of the various cell lineages was assessed by Q-PCRs after 5 days of treatments (FIG. 2). Further characterization of the organoids will be performed by immunofluorescence staining and flow cytometry. […]

As to `Cc1ccc2nc(NC(=O)CSc3nc4c(c(=O)n3-c3ccccc3)SCC4)sc2c1` [IWP2], in experiment [1], the “Cell lineage (factors known to induce markers of intestinal lineages)” value is recorded as “Enterocytes, Enteroendocrine Cells”. For the compound `C[C@H](NC(=O)Cc1cc(F)cc(F)c1)C(=O)N[C@H](C(=O)OC(C)(C)C)c1ccccc1` [DAPT], in experiment [1], the “Cell lineage (factors known to induce markers of intestinal lineages)” value is reported as “Enteroendocrine Cells, Paneth”. The “expression of chromogranin A and chromogranin B genes, markers of enteroendocrine cells” value in experiment [2] is “induces the expression of chromogranin A and chromogranin B genes”.
